Assay results published in US20210220356A1, “DIHYDROPYRIMIDINE DERIVATIVES AND USES THEREOF IN THE TREATMENT OF HBV INFECTION OR OF HBV-INDUCED DISEASES” (Janssen Sciences Ireland Unlimited Company, priority 2018, published 2021).
Read-outs that look alike come from different tables or passages of the source.

Tests used:
Format in all cases: cell-based
HBV = HBV inhibitory activity in HepG2.2.15 cells (HBV DNA in culture medium by q-PCR); settings: HepG2.2.15 cells, 40,000 cells/well, 6 days of compound treatment, HBV DNA in culture medium by q-PCR, highest concentration 10 uM, read-out: EC50
Procedure: (§1) • HepG2.2.15 (the HepG2.2.15 cell line can be produced by transfection of the HepG2 cell line as described in Sells, Chen, and Acs 1987 (Proc. Natl. Acad. Sci. USA 84: 1005-1009), and the HepG2 cell line is available from ATCC® under number HB-8065™)
(§2) Seed the cell HepG2.2.15 cells into 96-well plate in 2% FBS culture medium at the density of 40,000 cells/well and 5,000 cells/well for HBV inhibitory activity and cytotoxicity determination, respectively. After seeding, incubate the cell plates at 37° C., 5% CO2 overnight. The next day, medium containing compounds is added to the cell to treat the cells for 6 days with medium refreshed once in the middle of the treatment. 8 dose points with 3 folds dilution of each compound were adopted and the highest concentration of the compounds is 10 uM and 100 uM for HBV inhibitory activity and cytotoxicity determination, respectively.
The HBV DAN change in the cell culture medium induced by the compounds is measured by q-PCR method. Briefly, the HBV DNA in the culture medium is extracted using QIAamp 96 DNA Blood Kit according to the manual and then quantified by q-PCR using the primers and probe in the table below.
(§3) EC50 and CC50 values are calculated by the GRAPHPAD PRISM software.

[1] = Cytotoxicity determination in HepG2.2.15 cells (CCK-8); settings: human, HepG2.2.15 cells, HepG2.2.15 cells, 5,000 cells/well, 6 days of compound treatment, CCK-8 absorbance 450 nm, highest concentration 100 uM
Procedure: as §1, §2
(§4) After 6 days of compounds treatment, add 20 μl CCK-8 reagents to each well of cytotoxicity assay plates, incubate the plate at 37° C., 5% CO2 for 2.5 h and measure the absorbance at 450 nm wavelength, at the same time read the absorbance at 630 nm wavelength as reference.
as §3

HepG2.2.15 cells = assay: as above; settings: HepG2.2.15 cells, 5,000 cells/well, 6 days of compound treatment, CCK-8 absorbance 450 nm, highest concentration 100 uM
Procedure: as §1, §2, §4, §3

[2] = Hepatitis B virus, HepG2.2.15, 144 h

Row | Structure (SMILES) | EC50 (HBV) | CC50 at 6 days [1] | EC50 (HBV; [2]) | CC50 (HepG2.2.15 cells)
1 | COC(=O)C1=C(C2CCc3nn(CCC(=O)O)cc3C2)NC(c2nccs2)=NC1c1cccc(F)c1Br (single isomer, unassigned) [Compound 45b, 3-(5-(6-(2-Bromo-3-fluorophenyl)-5-(methoxycarbonyl)-2-(thiazol-2-yl)-3,6-dihydropyrimidin-4-yl)-4,5,6,7-tetrahydro-2H-indazol-2-yl)propanoic acid] | 0.213 µM | 18.2 µM |  | 
2 | COC(=O)C1=C(C2CCc3nc(CCC(=O)O)ncc3C2)NC(c2nccs2)=NC1c1ccc(F)c(F)c1Cl (centres unmarked) [Compound 64, 3-(6-(6-(2-Chloro-3,4-difluorophenyl)-5-(methoxycarbonyl)-2-(thiazol-2-yl)-3,6-dihydropyrimidin-4-yl)-5,6,7,8-tetrahydroquinazolin-2-yl)propanoic acid] |  | 26.4 µM | 0.07 µM | 
3 | CCOC(=O)C1=C(C2CCc3nn(CC(C)(C)C(=O)O)cc3C2)NC(c2nccs2)=NC1c1ccc(F)c(F)c1Cl (single isomer, unassigned) [Compound 53a, 3-(5-(6-(2-Chloro-3,4-difluorophenyl)-5-(ethoxycarbonyl)-2-(thiazol-2-yl)-3,6-dihydropyrimidin-4-yl)-4,5,6,7-tetrahydro-2H-indazol-2-yl)-2,2-dimethylpropanoic acid] | 0.132 µM | 7.2 µM |  | 
4 | COC(=O)C1=C(C2CCc3[nH]ncc3C2)NC(c2nccs2)=NC1c1ccc(F)c(F)c1Cl (single isomer, unassigned) [Compound 65a, Methyl 4-(2-chloro-3,4-difluorophenyl)-6-(4,5,6,7-tetrahydro-1H-indazol-5-yl)-2-(thiazol-2-yl)-1,4-dihydropyrimidine-5-carboxylate] | 0.0563 µM | 11.8 µM |  | 
5 | COC(=O)C1=C(C2CCc3nn(CCC(=O)O)cc3C2)NC(c2nccs2)=NC1c1ccc(F)c(F)c1Cl (single isomer, unassigned) [Compound 70b, 3-(-5-(6-(2-chloro-3,4-difluorophenyl)-5-(methoxycarbonyl)-2-(thiazol-2-yl)-3,6-dihydropyrimidin-4-yl)-4,5,6,7-tetrahydro-2H-indazol-2-yl)propanoic acid] | 0.083 µM | 22.7 µM |  | 
6 | COC(=O)C1=C(C2CCc3nn(CCC(C)(C)C(=O)O)cc3C2)NC(c2nccs2)=NC1c1ccc(F)c(F)c1Cl (centres unmarked) [Compound 90c, 4-(5-(6-(2-Chloro-3,4-difluorophenyl)-5-(methoxycarbonyl)-2-(thiazol-2-yl)-3,6-dihydropyrimidin-4-yl)-4,5,6,7-tetrahydro-2H-indazol-2-yl)-2,2-dimethylbutanoic acid] |  | 13.3 µM | 0.0249 µM | 
7 | COC(=O)C1=C(C2CCc3nc([C@H]4C[C@H](C(=O)O)C4)oc3C2)NC(c2nccs2)=NC1c1ccc(F)c(F)c1Cl (single isomer, unassigned) [Compound 72b, (trans)-3-(6-(6-(2-Chloro-3,4-difluorophenyl)-5-(methoxycarbonyl)-2-(thiazol-2-yl)-3,6-dihydropyrimidin-4-yl)-4,5,6,7-tetrahydrobenzo[d]oxazol-2-yl)cyclobutanecarboxylic acid] | 0.0215 µM | 7 µM |  | 
8 | CCOC(=O)C1=C(C2CCc3nn(CCC(=O)O)cc3C2)NC(c2nccs2)=NC1c1ccc(F)cc1Cl (single isomer, unassigned) [Compound 37b, 3-(5-(6-(2-Chloro-4-fluorophenyl)-5-(ethoxycarbonyl)-2-(thiazol-2-yl)-3,6-dihydropyrimidin-4-yl)-4,5,6,7-tetrahydro-2H-indazol-2-yl)propanoic acid] | 0.175 µM | 19.6 µM |  | 
9 | CCOC(=O)C1=C(C2CCc3nn(CCC(=O)O)cc3C2)NC(c2nccs2)=NC1c1ccc(F)c(F)c1Cl (single isomer, unassigned) [Compound 34c, 3-(5-(6-(2-chloro-3,4-difluorophenyl)-5-(ethoxycarbonyl)-2-(thiazol-2-yl)-3,6-dihydropyrimidin-4-yl)-4,5,6,7-tetrahydro-2H-indazol-2-yl)propanoic acid] | < 0.0046 µM |  |  | 14.9 µM
10 | CCOC(=O)C1=C(C2CCc3nn(CCC(=O)O)cc3C2)NC(c2nccs2)=NC1c1ccc(F)cc1Cl (single isomer, unassigned) [Compound 37d, 3-(5-(6-(2-Chloro-4-fluorophenyl)-5-(ethoxycarbonyl)-2-(thiazol-2-yl)-3,6-dihydropyrimidin-4-yl)-4,5,6,7-tetrahydro-2H-indazol-2-yl)propanoic acid] | 0.88 µM |  |  | 18.9 µM
11 | CCOC(=O)C1=C(C2CCc3nn(CCC(=O)O)cc3C2)NC(c2nccs2)=NC1c1ccc(F)cc1C (single isomer, unassigned) [Compound 38b, 3-(5-(5-(Ethoxycarbonyl)-6-(4-fluoro-2-methylphenyl)-2-(thiazol-2-yl)-3,6-dihydropyrimidin-4-yl)-4,5,6,7-tetrahydro-2H-indazol-2-yl)propanoic acid] | 0.667 µM |  |  | 22.9 µM
12 | COC(=O)C1=C(C2CCc3nn(CCC(=O)O)cc3C2)NC(c2nccs2)=NC1c1ccc(F)c(F)c1Br (single isomer, unassigned) [Compound 46d, 3-(5-(6-(2-Bromo-3,4-difluorophenyl)-5-(methoxycarbonyl)-2-(thiazol-2-yl)-3,6-dihydropyrimidin-4-yl)-4,5,6,7-tetrahydro-2H-indazol-2-yl)propanoic acid] | 0.0136 µM |  |  | 10.7 µM
13 | CCOC(=O)C1=C(C2CCc3nc(CCC(=O)O)oc3C2)NC(c2nccs2)=NC1c1ccc(F)c(F)c1Cl (single isomer, unassigned) [Compound 58d, 3-(6-(6-(2-Chloro-3,4-difluorophenyl)-5-(ethoxycarbonyl)-2-(thiazol-2-yl)-3,6-dihydropyrimidin-4-yl)-4,5,6,7-tetrahydrobenzo[d]oxazol-2-yl)propanoic acid] | 0.0092 µM |  |  | 10.8 µM
14 | COC(=O)C1=C(C2CCc3nn(CCC(=O)O)cc3C2)NC(c2nccs2)=NC1c1ccc(F)cc1Cl (single isomer, unassigned) [Compound 47b, 3-(5-(6-(2-Chloro-4-fluorophenyl)-5-(methoxycarbonyl)-2-(thiazol-2-yl)-3,6-dihydropyrimidin-4-yl)-4,5,6,7-tetrahydro-2H-indazol-2-yl)propanoic acid] | 0.47 µM |  |  | 37.7 µM
15 | COC(=O)C1=C(C2CCc3nc([C@H]4CC[C@H](C(=O)O)CC4)oc3C2)NC(c2nccs2)=NC1c1ccc(F)c(F)c1Cl (single isomer, unassigned) [Compound 86b, (trans)-4-(6-(6-(2-chloro-3,4-difluorophenyl)-5-(methoxycarbonyl)-2-(thiazol-2-yl)-3,6-dihydropyrimidin-4-yl)-4,5,6,7-tetrahydrobenzo[d]oxazol-2-yl)cyclohexanecarboxylic acid] |  |  | 0.064 µM | 8.7 µM
16 | CCOC(=O)C1=C(C2CCc3nn(CCC(=O)O)cc3C2)NC(c2nccs2)=NC1c1cccc(F)c1C (single isomer, unassigned) [Compound 41c, 3-(5-(5-(Ethoxycarbonyl)-6-(3-fluoro-2-methylphenyl)-2-(thiazol-2-yl)-3,6-dihydropyrimidin-4-yl)-4,5,6,7-tetrahydro-2H-indazol-2-yl)propanoic acid] | 0.0304 µM |  |  | 14.4 µM
17 | CCOC(=O)C1=C(C2CCc3nn(CC(C)(C)C(=O)O)cc3C2)NC(c2nccs2)=NC1c1ccc(F)c(F)c1Cl (single isomer, unassigned) [Compound 53b, 3-(5-(6-(2-Chloro-3,4-difluorophenyl)-5-(ethoxycarbonyl)-2-(thiazol-2-yl)-3,6-dihydropyrimidin-4-yl)-4,5,6,7-tetrahydro-2H-indazol-2-yl)-2,2-dimethylpropanoic acid] | 0.104 µM |  |  | 11.9 µM
18 | COC(=O)C1=C(C2CCc3nc([C@H]4C[C@H](C(=O)O)C4)oc3C2)NC(c2nccs2)=NC1c1ccc(F)c(F)c1Cl (single isomer, unassigned) [Compound 72c, (trans)-3-(6-(6-(2-Chloro-3,4-difluorophenyl)-5-(methoxycarbonyl)-2-(thiazol-2-yl)-3,6-dihydropyrimidin-4-yl)-4,5,6,7-tetrahydrobenzo[d]oxazol-2-yl)cyclobutanecarboxylic acid] | 0.0902 µM |  |  | 8.7 µM
19 | CCOC(=O)C1=C(C2CCc3cn(CCC(=O)O)nc3C2)NC(c2nccs2)=NC1c1ccc(F)c(F)c1Cl (single isomer, unassigned) [Compound 61a, 3-(6-(6-(2-Chloro-3,4-difluorophenyl)-5-(ethoxycarbonyl)-2-(thiazol-2-yl)-3,6-dihydropyrimidin-4-yl)-4,5,6,7-tetrahydro-2H-indazol-2-yl)propanoic acid] | 0.0612 µM |  |  | 4.8 µM
